Measurements taken from patent US20180105838A1, “PROCESS FOR DE NOVO MICROBIAL SYNTHESIS OF TERPENES” (BASF SE, priority 2015, published 2018).

Key:
[1] = tested on: Methylobacterium extorquens AM1; assay: α-humulene tolerance of M. extorquens AM1 (growth rate comparison, OD600); type: cell-based; details: FIG. 3
Protocol: (§1) 1.6 Dodecane and α-Humulene Tolerance of M. extorquens AM1
The α-humulene tolerance was tested in two ways: tolerance towards α-humulene added directly to the aqueous phase and tolerance towards α-humulene dissolved in the organic dodecane layer. For the first experiment, pure α-humulene dissolved in ethanol was added to 100 ml baffled shaker flasks containing 15 ml MM with end concentrations of α-humulene of 1000, 500, 250, 100, 50, 25, 10 and 5 mg/L. Corresponding quantities of ethanol were added to the MM as negative controls. The flasks with the different α-humulene concentrations and the corresponding negative controls were inoculated with a preculture without α-humulene to an OD600 of 0.1. The OD600 was recorded over 30 h.
For the second said experiment, pure α-humulene was dissolved in dodecane and solutions with 1000, 500, 100, 50 and 10 mg/L α-humulene prepared. Two cultures each with 12 ml MM and 3 ml dodecane for each α-humulene concentration were inoculated to an OD600 of 0.1 from a preculture of M. extorquens AM1 without dodecane. Cultures with dodecane without α-humulene were used as negative controls. OD600 was measured over 30 h.
Terpenes often have toxic effects on bacteria. The toxicity of α-humulene to M. extorquens was studied by growth analyses in the presence of different α-humulene concentrations. […]

[2] = tested on: Methylobacterium extorquens AM1; type: cell-based
Protocol: as §1
M. extorquens AM1 precultures were cultured in test tubes with 5 ml methanol minimal medium (MM) for 48 h. The tolerance of M. extorquens AM1 towards 20% (v/v) dodecane was studied by growth comparison ( OD600) of cultures containing 15 ml MM and cultures with 12 ml MM and 3 ml dodecane. The cultures for the growth comparison with and without dodecane were inoculated from one preculture.

SMILES | growth-inhibiting effect (growth rate μ compared with μmax without α-humulene) ([1]; α-humulene dissolved directly in the aqueous phase, even at concentrations of 1 g/l) | influence on growth (growth rate μ compared with μmax without α-humulene) ([1]; α-humulene dissolved in the dodecane phase as second organic phase) | toxic effects or influence on growth [2]
C/C1=C\CC/C(C)=C/CC(C)(C)/C=C/C1 [α-humulene] | only minimal growth-inhibiting effects | slightly lesser influence than in the aqueous phase | –
CCCCCCCCCCCC [dodecane] | – | – | without any toxic effects or influence on growth being observable
